Assay results reported in US10662222B2, “Drug delivery enhancement agents” (The University of Bath, priority 2014, dated 2020).
Like-named read-outs stand apart in the source and are kept apart here.

Legend:
Caco-2 cell monolayers [1] = test: Trans-epithelial electrical resistance (TEER) of Caco-2 monolayers after apical peptide application; type: cell-based, human; conditions: for Efficacy at 5 mM (TEER reduction): apical application to Caco-2 cell monolayers
Experimental: An immortalized human intestinal epithelial cell line (Caco-2) were maintained in DMEM/F12 medium (Gibco, Paisley, UK) supplemented with 10% FBS, 2 mM L-glutamine (Gibco) 100 U/ml penicillin and 100 μg/ml streptomycin (Gibco). Caco-2 cells were seeded at a density of 7×10^4/well on Transwell™ (Corning, N.Y.) polyester membrane filters (12 mm diameter, 0.4 μm pore size). Re-feeding with DMEM (Life Technologies, Paisley, UK) was carried out every second day. Caco-2 monolayers with trans-epithelial electrical resistance (TEER)>350 Ω·cm2 were considered confluent and used in transport assays; fixed paddle electrodes were used to measure TEER (World Precision Instruments, UK).
(§1) Apical to basal flux of 50 mg/ml 4 kDa dextran or 50 mg/ml 70 kDa dextran (Sigma) was performed to assess the impact of PIP peptides on paracellular permeability. Apical compartment volume was 200 μl; at set times the 600 μl basal compartment volume was collected and replaced with fresh HBSS. Apical and basal compartment fluorescence was determined using a Floustar Omega microplate reader (BMG Labtech, Ortenburg, Germany). TEER measurements were made for each well immediately after HBSS replacement. After 3 hr, the apical compartment dextran and peptide solution was removed and replaced with PBS and TEER values were recorded for a further 30 min to assess monolayer recovery.
(§2) TEER values were calculated by subtracting blank filter reading and normalized as a percentage of the initial TEER value for that monolayer. Fluorescent dextran flux used to calculate paracellular permeability was performed as previously described. Blood glucose levels were expressed as a percentage of the baseline glucose levels for each animal. Data were compared to control values using a two-tailed, un-paired Student's T-test.
Peptides were applied apically at a concentration of 5 mM to confluent monolayers of Caco-2 cells grown on semi-permeable inserts (Rubus et al. (1996) J. Pharma. Sci 85:165-169) to assess their ability to affect TJ function (Peterson & Mooseker (1992) J. Cell. Sci. 102(3):581-600). RRVEVKYDRR (peptide #6; peptide 640, SEQ ID NO: 3) reduced the trans-epithelial electrical resistance (TEER) of Caco-2 monolayers with a drop of 50% within 25 min of addition (FIG. 4), and none of the peptides were toxic at this concentration according to MTT assay (Mosman (1983) J. Immunol. Methods 65:55-63). Critically, following gentle washing, RRVEVKYDRR (SEQ ID NO: 3)-treated Caco-2 monolayers TEER values recovered to 80% of their original values within 24 h. A lead candidate, peptide NH2-rrdykvevrr-NH2, (SEQ ID NO: 20) was identified based on the RRVEVKYDRR (SEQ ID NO: 3) sequence but using the retro-inverso configuration with D-configuration amino acids.

Caco-2 monolayers = test: Apical to basal flux of fluorescent dextran (4 kDa, 70 kDa) across Caco-2 monolayers; type: cell-based, human; conditions: for transport of paracellular marker 4 kDa fluorescent dextran (4FD): relative to control peptide, FIG. 5
Experimental: as §1, §2

[2] = Blood glucose after SC or intraluminal intestinal (ILI) injection of insulin with PIP peptides; type: in vivo, rat
Experimental: Male Wistar rats, bred in house, were 225-275 g (approximately 6-8 weeks old) when placed on study. Rats were housed in groups of 3-5 per cage in a 12/12 hr light/dark cycle. All experiments were conducted during the light phase and carried out using a non-recovery protocol that used continuous isoflurane anesthesia. A 4-5 cm midline abdominal incision was made to expose mid-jejunum to early ileum regions of the small intestine and to provide access to the portal vein for the insertion of a cannula. Solutions of insulin (human recombinant; Sigma) and PIP peptides were prepared in 0.9% saline containing 10 mM citric acid to reduce local proteolysis and mixed 1:1 before injection using a 29-gauge hypodermic needle in a volume of 200 μL/kg (or ˜50 μL, per 250 g rat). The injection site was marked with a permanent marker. The incision was closed with surgical glue. Blood draws were taken from the portal vein as well as systemic circulation over the next two hours to monitor glucose, serum insulin and endotoxin. Control treatment groups included SC injection of insulin […] as well as intestinal injection of PIP peptide without insulin or insulin alone in the phosphate buffered saline (PBS) formulation used for all groups. At the end of a study, a 3-5 mm region about the marked intestine segment was isolated. This tissue was lysed for biochemical assessment of MLC phosphorylation state or fixed, sectioned, and stained with hematoxylin/eosin prior to analysis read by a licensed veterinary pathologist. Subcutaneous (SC) insulin injections (20 μl/kg) were performed in the mid-scapular region and blood glucose was measured in the same manner. All experiments were performed in accordance with the U.K. Animals (Scientific Procedures) Act of 1986, the European Communities Council Directive of 1986 (86/609/EEC), and the University of Bath's ethical review procedures.
as §2

[3] = test system: myosin light chain (MLC) phosphorylated at Ser19; test: PhosphoMLC analysis (Western blot) of intestinal tissue after ILI injection; type: in vivo, rat; conditions: 20 mM peptide
Experimental: After rinsing with ice cold PBS, Caco-2 monolayers or epithelial cells from isolated intestinal tissue were lysed in 3 μL of a protease inhibitor cocktail and 200 μL RIPA buffer and left on ice for 10 min. Isolated intestinal tissue was similarly placed in ice cold PBS for 15 min prior to maceration in a protease inhibitor cocktail and RIPA buffer, being left on ice for 10 min. All cell and tissues lysates were centrifuged at 8000 rpm for 15 min to collect the supernatant, which was stored at −80° C. until use. For Western blots analysis, lysates were separated by SDS-PAGE (12%) run at 220V for 40 min and electro-transferred onto a PDVF membrane at 30V for 70 min using an XCell™ Blot module (Invitrogen). Membranes were blocked using 5% bovine serum albumin in TBS-T (2 M Tris, HCl, pH 7.5, 4 M NaCl and 0.1% Tween 20) for 1 hr. Membranes were washed with water, incubated with primary antibody (anti-myosin light chain (phospho S20) antibody or anti-myosin light chain 2) antibody overnight at 5° C., washed thrice with TBS-T, and then incubated with secondary horseradish […] (HRP)-coupled antibody for 1 hr at room temperature. After washing thrice in TBS-T, HRP activity was detected by ECL (Santa Cruz).
After rinsing with ice cold PBS to remove PIP peptide or control treatment agents, isolated intestinal tissue was placed in ice cold PBS for 15 min prior to addition of 25 μl protease inhibitor cocktail (Fisher), 25 μl phosphatase inhibitor cocktail (Fisher) and 500 μl RIPA buffer (Sigma Aldrich). After 10 min on ice lysates were centrifuged at 8000 rpm for 15 min to collect the supernatant, which was stored at −80° C. until use. For Western blots analysis, lysates were separated by SDS-PAGE (12%) run at 220V for 40 min and electro-transferred onto a PDVF membrane at 30V for 70 min using an XCell™ Blot module (Invitrogen). Membranes were blocked using 5% bovine serum albumin in TBS-T (2 M Tris HCl, pH 7.5, 4 M NaCl and 0.1% Tween 20) for 1 h. Membranes were washed with water, incubated with primary antibody (anti-myosin light chain (phospho S19) antibody (Cell Signalling Technologies) or anti-myosin light chain 2 antibody (Abcam) overnight at 5° C., washed thrice with TBS-T, and then incubated with secondary horseradish […] (HRP)-coupled antibody for 1 h at room temperature. After washing thrice in TBS-T, HRP activity was detected by ECL (Santa Cruz).

Caco-2 cells [4] = test system: Caco-2 cells
Experimental: (§3) MTT assay: Cell viability was assessed using the 3-(4,5-dimethylthiazol-2-yl)-2,5-diphenyl tetrazolium bromide (MTT; Invitrogen, Paisley, UK) assay. Following exposure of cells to CPP complexes for 72 hours, 0.5 mg/ml MTT was added to the culture medium and incubated with the cells for a further 3 hours. Media was then removed and replaced with DMSO to lyse the cells. Absorbance was then recorded at 550 nm.

Caco-2 cell monolayers [5] = test: Trans-epithelial electrical resistance (TEER) of Caco-2 monolayers after apical peptide application; type: cell-based, human; conditions: FIG. 6; for TEER after peptide removal: fresh media to apical compartment after 180 min exposure
Caco-2 cells [6] = test: Cell viability / cytotoxicity, MTT assay
Experimental: as §3

## NH2-RRV EVKYDRR-NH2 [peptide 640]
Caco-2 cell monolayers [1]; 5 mM apical, within 25 min of addition
  drop of TEER: 50%
Caco-2 cell monolayers [1]; 5 mM
  Efficacy at 5 mM (TEER reduction): Yes
Caco-2 cell monolayers [1]; 5 mM, FIG. 5
  TEER decrease to % of its initial value: ~50%
Caco-2 cell monolayers [1]; 5 mM, after 180 min of exposure
  loss in TEER: ~50%
Caco-2 cell monolayers [1]; after gentle washing, within 24 h
  TEER recovery, % of original values: 80%
Caco-2 monolayers; 5 mM
  permeability of 4 kDa dextran: failed to affect
  transport of paracellular marker 4 kDa fluorescent dextran (4FD): increased transport of a paracellular marker relative to the control
Caco-2 monolayers; 10 mM apical
  increase of rate of 4 kDa dextran permeation: ~3 fold
Caco-2 monolayers; concentration not given
  flux of 70 kDa dextran: failed to affect
[2]; ILI of 30 IU/kg insulin plus 10 mM peptide
  blood glucose change profile: much delayed decrease
[3]; 15 min
  MLC phosphorylation ratio (MLC to pMLC): significantly increased
[3]; 45 min
  MLC phosphorylation ratio (MLC to pMLC): remained elevated
[3]; 90 min
  MLC phosphorylation ratio (MLC to pMLC): returning to initial levels
Caco-2 cells [4]
  cell viability (mitochondrial membrane polarity marker MTS): did not affect cell viability
Caco-2 cell monolayers [5]
  TEER after peptide removal: rapid reversal of TEER depression

## RKAKYQYRRK (drug delivery enhancement peptide) [peptide 250]
Caco-2 cell monolayers [1]; 5 mM, FIG. 5
  TEER change compared with peptide 640: slower and less pronounced drop in TEER
Caco-2 monolayers; 5 mM
  transport of paracellular marker 4 kDa fluorescent dextran (4FD): increased transport of a paracellular marker relative to the control
Caco-2 monolayers; 10 mM
  4 kDa dextran flux rates, comparison: 10 mM peptide 640 was equal to 10 mM peptide 250
Caco-2 monolayers; 20 mM
  4 kDa dextran flux rate compared to control: ~6 fold
  increase of 70 kDa dextran flux: ~3 fold
[2]; ILI of 30 IU/kg insulin plus 10 mM peptide, by 90 min
  blood sugar recovery: 70-80%
[2]; ILI of 30 IU/kg insulin plus 20 mM peptide, by 30 min, remained for the remainder of the experiment
  drop in blood glucose: 40%
[3]; 15 min
  MLC phosphorylation ratio (MLC to pMLC): no significant changes
[3]; 45 min
  MLC phosphorylation ratio (MLC to pMLC): elevated
[3]; 90 min
  MLC phosphorylation ratio (MLC to pMLC): returning to basal levels
Caco-2 cell monolayers [5]; 20 mM peptide 250 versus 10 mM peptide 640
  TEER response: very comparable response to 10 mM peptide 640
Caco-2 cell monolayers [5]
  TEER after peptide removal: rapid reversal of TEER depression
Caco-2 cells [6]; concentrations that modulated TEER and paracellular permeability
  cell viability (mitochondrial membrane polarity marker MTS): did not affect cell viability
Caco-2 cells [6]; data not shown
  cytotoxicity using the MTT assay: lack of cytotoxicity

## NH2-RRVpTVKYDRR-NH2 (RRVTVKYDRR; HELM PEPTIDE1{R.R.V.[C[C@@H](OP(=O)(O)O)[C@H](N[*:1])C(=O)[*:2]].V.K.Y.D.R.R.[am]}$$$$V2.0; SMILES CC(C)[C@H](NC(=O)[C@H](CCCNC(=N)N)NC(=O)[C@@H](N)CCCNC(=N)N)C(=O)N[C@H](C(=O)N[C@H](C(=O)N[C@@H](CCCCN)C(=O)N[C@@H](Cc1ccc(O)cc1)C(=O)N[C@@H](CC(=O)O)C(=O)N[C@@H](CCCNC(=N)N)C(=O)N[C@@H](CCCNC(=N)N)C(N)=O)C(C)C)[C@@H](C)OP(=O)(O)O) [peptide 2]
Caco-2 cell monolayers [1]; 5 mM
  Efficacy at 5 mM (TEER reduction): No

## NH2-RRVpTVKYKRR-NH2 (RRVTVKYKRR; HELM PEPTIDE1{R.R.V.[C[C@@H](OP(=O)(O)O)[C@H](N[*:1])C(=O)[*:2]].V.K.Y.K.R.R.[am]}$$$$V2.0; SMILES CC(C)[C@H](NC(=O)[C@H](CCCNC(=N)N)NC(=O)[C@@H](N)CCCNC(=N)N)C(=O)N[C@H](C(=O)N[C@H](C(=O)N[C@@H](CCCCN)C(=O)N[C@@H](Cc1ccc(O)cc1)C(=O)N[C@@H](CCCCN)C(=O)N[C@@H](CCCNC(=N)N)C(=O)N[C@@H](CCCNC(=N)N)C(N)=O)C(C)C)[C@@H](C)OP(=O)(O)O) [compound 4]
Caco-2 cell monolayers [1]; 5 mM
  Efficacy at 5 mM (TEER reduction): No

## NH2-RRK TVKYDRR-NH2 (H-RRKTVKYDRR-NH2) [compound 5]
Caco-2 cell monolayers [1]; 5 mM
  Efficacy at 5 mM (TEER reduction): No

## insulin
[2]; SC injection of 3 IU/kg insulin
  decrease in blood glucose: ~50%
[2]; SC injection of insulin
  time at which blood glucose began to recover: ~90 min
  time of blood glucose nadir: ~30 min
[2]; intraluminal injection of 30 IU/kg insulin alone
  effect on blood sugar: no effect

## NH2-RRV TVKYKRR-NH2 (H-RRVTVKYKRR-NH2) [compound 3]
Caco-2 cell monolayers [1]; 5 mM
  Efficacy at 5 mM (TEER reduction): No

## NH2-RRV TVKYDRR-NH2 (H-RRVTVKYDRR-NH2) [peptide 1]
Caco-2 cell monolayers [1]; 5 mM
  Efficacy at 5 mM (TEER reduction): No
